The record followed here is PMC6700223 (Frontiers in Microbiology, 2019).

Series [1] is classed as physicochemical. The settings on record: pH 7.2.
Series [2] deals with LASV GPC protein-mediated cell–cell fusion (293T/LASV/EGFP cells and Huh-7 cells). The note with it: pH 5; for IC50: 12 h.

The term IC50 denotes the concentration needed to halve the response being measured. A higher IC50 goes with a need for much substance. For `CC[C@H](C)[C@H](NC(=O)[C@H](CC(=O)O)NC(=O)[C@H](CC(=O)O)NC(=O)[C@H](CO)NC(=O)[C@H](Cc1ccccc1)NC(=O)[C@H](Cc1c[nH]cn1)NC(=O)[C@@H](NC(=O)[C@H](CCC(=O)O)NC(=O)[C@H](CC(N)=O)NC(=O)[C@H](CC(C)C)NC(=O)[C@H](Cc1ccc(O)cc1)NC(=O)[C@H](CO)NC(=O)CNC(=O)[C@H](CC(N)=O)NC(=O)[C@H](CO)NC(=O)[C@@H](NC(=O)[C@H](CC(C)C)NC(=O)[C@H](Cc1c[nH]c2ccccc12)NC(=O)[C@@H](N)CS)C(C)C)[C@@H](C)O)C(=O)N[C@@H](CCC(=O)O)C(=O)N[C@@H](CCC(N)=O)C(=O)N[C@@H](CCC(N)=O)C(=O)N[C@@H](C)C(=O)N[C@@H](CC(=O)O)C(=O)N[C@@H](CC(N)=O)C(=O)N[C@@H](CCSC)C(=O)N[C@H](C(=O)N[C@H](C(=O)N[C@@H](CCC(=O)O)C(=O)N[C@@H](CCSC)C(=O)N[C@@H](CC(C)C)C(=O)N[C@@H](CCC(N)=O)C(=O)N[C@@H](CCCCN)C(=O)N[C@@H](CCC(=O)O)C(=O)N[C@@H](Cc1ccc(O)cc1)C(=O)N[C@@H](CCSC)C(=O)N[C@@H](CCC(=O)O)C(=O)N[C@@H](CCCNC(=N)N)C(=O)N[C@@H](CCC(N)=O)C(=O)NCC(=O)N[C@@H](CCCCN)C(=O)N[C@H](C(=O)N1CCC[C@H]1C(=O)N[C@@H](CC(C)C)C(=O)NCC(=O)N[C@@H](CC(C)C)C(=O)N[C@H](C(=O)N[C@@H](CC(=O)O)C(=O)O)C(C)C)[C@@H](C)O)[C@@H](C)O)[C@@H](C)CC` [HR2-1], the α-helical ratio in series [1] is listed as 28%. In series [2], the 50% inhibitory concentration (IC50) worked out at 0.37 µM and the “Inhibition of cell–cell fusion at 20 μM” value is “completely inhibit”.

As for `CC[C@H](C)[C@H](NC(=O)[C@H](CC(=O)O)NC(=O)[C@H](CC(=O)O)NC(=O)[C@H](CO)NC(=O)[C@H](Cc1ccccc1)NC(=O)[C@H](Cc1c[nH]cn1)NC(=O)[C@@H](NC(=O)[C@H](CCC(=O)O)NC(=O)[C@H](CC(N)=O)NC(=O)[C@H](CC(C)C)NC(=O)[C@H](Cc1ccc(O)cc1)NC(=O)[C@@H](N)CO)[C@@H](C)O)C(=O)N[C@@H](CCC(=O)O)C(=O)N[C@@H](CCC(N)=O)C(=O)N[C@@H](CCC(N)=O)C(=O)N[C@@H](C)C(=O)N[C@@H](CC(=O)O)C(=O)N[C@@H](CC(N)=O)C(=O)N[C@@H](CCSC)C(=O)N[C@H](C(=O)N[C@H](C(=O)N[C@@H](CCC(=O)O)C(=O)N[C@@H](CCSC)C(=O)N[C@@H](CC(C)C)C(=O)N[C@@H](CCC(N)=O)C(=O)N[C@@H](CCCCN)C(=O)N[C@@H](CCC(=O)O)C(=O)N[C@@H](Cc1ccc(O)cc1)C(=O)N[C@@H](CCSC)C(=O)N[C@@H](CCC(=O)O)C(=O)N[C@@H](CCCNC(=N)N)C(=O)N[C@@H](CCC(N)=O)C(=O)NCC(=O)N[C@@H](CCCCN)C(=O)N[C@H](C(=O)N1CCC[C@H]1C(=O)N[C@@H](CC(C)C)C(=O)O)[C@@H](C)O)[C@@H](C)O)[C@@H](C)CC` [HR2-2], in series [2], the IC50 turned out to be 26.4 µM and the “Inhibition of cell–cell fusion at 20 μM” value was 30–40%.
